# Measurements published in ChEMBL document CHEMBL1133475, “Inhibitors of NF-kappaB and AP-1 gene expression: SAR studies on the pyrimidine portion of 2-chloro-4-trifluoromethylpyrimidine-5-[N-(3', 5'-bis(trifluoromethyl)phenyl)carboxamide]” (J Med Chem, 2000).
# Species on record: Homo sapiens
# Assay: Compound was tested for permeability in Caco-2 cells by HPLC method
# Assay type: ADME, cell-based
row,Structure (SMILES),Permeability [×10⁻⁶ cm/s]
1,O=C(Nc1cc(C(F)(F)F)cc(C(F)(F)F)c1)c1cnc(Cl)nc1-c1cccs1,2.1
2,O=C(Nc1cc(C(F)(F)F)cc(C(F)(F)F)c1)c1cnc(F)nc1C(F)(F)F,1.9
3,Cc1nc(Cl)ncc1C(=O)Nc1cc(C(F)(F)F)cc(C(F)(F)F)c1,6.2
4,CCCc1nc(Cl)ncc1C(=O)Nc1cc(C(F)(F)F)cc(C(F)(F)F)c1,3.1
5,O=C(Nc1cc(C(F)(F)F)cc(C(F)(F)F)c1)c1cnc(Cl)nc1C(F)(F)F,1.1
6,O=C(Nc1cc(C(F)(F)F)cc(C(F)(F)F)c1)c1cnc(Cl)nc1,6.1
7,CCc1nc(Cl)ncc1C(=O)Nc1cc(C(F)(F)F)cc(C(F)(F)F)c1,5.8
8,O=C(Nc1cc(C(F)(F)F)cc(C(F)(F)F)c1)c1cnc(Cl)nc1Cl,3.1
9,O=C(Nc1cc(C(F)(F)F)cc(C(F)(F)F)c1)c1cnc(Cl)nc1C(F)(F)C(F)(F)F,0.9
10,O=C(Nc1cc(C(F)(F)F)cc(C(F)(F)F)c1)c1cnc(Cl)nc1-c1ccccc1,0.9
